Data set [1] in a line: Efflux ratio of apparent permeability from basolateral to apical over apical to basolateral side in human Caco2 cells. The format is ADME, cell-based. To be noted: caco-2. (Caco-2 monolayers are a common model of the intestinal barrier.)
Data set [2] in a line: Stability in rat plasma. The format is ADME, cell-free.
A short description of data set [3]: Stability in human plasma. The format is ADME, cell-free.

`CC(=O)O[C@H]1[C@@H](F)[C@H](n2cnc3c(N)ncnc32)O[C@@H]1COS(=O)(=O)NC(=O)c1ccccc1O.CCN(CC)CC`: the Ratio in data set [1] was 1.5 to 8.5.

For `CCCC(=O)O[C@H]1[C@@H](F)[C@H](n2cnc3c(N)ncnc32)O[C@@H]1COS(=O)(=O)NC(=O)c1ccccc1O.CCN(CC)CC`, in data set [1], the Ratio is 1.5 to 8.5.

For `CCCCC(=O)O[C@H]1[C@@H](F)[C@H](n2cnc3c(N)ncnc32)O[C@@H]1COS(=O)(=O)NC(=O)c1ccccc1O.CCN(CC)CC`, in data set [1], the Ratio was in the range of 1.5 to 8.5.

Consider `CC(C)C(=O)O[C@H]1[C@@H](F)[C@H](n2cnc3c(N)ncnc32)O[C@@H]1COS(=O)(=O)NC(=O)c1ccccc1O.CCN(CC)CC`, for which, in data set [1], the Ratio was 1.5 to 8.5.

For `CCC(=O)O[C@H]1[C@@H](F)[C@H](n2cnc3c(N)ncnc32)O[C@@H]1COS(=O)(=O)NC(=O)c1ccccc1O.CCN(CC)CC`, the Ratio in data set [1] was in the range of 1.5 to 8.5.

Turning to `CCC(CC)C(=O)O[C@H]1[C@@H](F)[C@H](n2cnc3c(N)ncnc32)O[C@@H]1COS(=O)(=O)NC(=O)c1ccccc1O.CCN(CC)CC`, the Ratio in data set [1] lay in the range of 1.5 to 8.5.

In the case of `CCCCCCCCCCCC(=O)O[C@H]1[C@@H](F)[C@H](n2cnc3c(N)ncnc32)O[C@@H]1COS(=O)(=O)NC(=O)c1ccccc1O.CCN(CC)CC`, in data set [1], the Ratio lay in the range of 1.5 to 8.5.

As to `CCCCCCCC(=O)O[C@H]1[C@@H](F)[C@H](n2cnc3c(N)ncnc32)O[C@@H]1COS(=O)(=O)NC(=O)c1ccccc1O.CCN(CC)CC`, the Ratio in data set [1] lay in the range of 1.5 to 8.5.

`CCN(CC)CC.Nc1ncnc2c1ncn2[C@@H]1O[C@H](COS(=O)(=O)NC(=O)c2ccccc2O)[C@@H](O)[C@H]1O`: the Stability in data set [2] and in data set [3] was 100% throughout.

Source of the values: ChEMBL document CHEMBL4270619, “Mycobacterial siderophore: A review on chemistry and biology of siderophore and its potential as a target for tuberculosis” (Eur J Med Chem, 2018).
